Data published in patent US6525001B1, “Substituted pyrimidine and pyridine herbicides” (Mid-American Commercialization Corporation, priority 1997, dated 2003).

Tests used:
Type in all cases: in vivo
Design in all cases: key: 0 is no effect; 10 is complete control
[1] = system: blackgrass (Alopecurus myosuroides); experiment: Test B pre-/postemergence
How it was run: (§1)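 Scored visually 0 (none) to 10 (complete control) against untreated plants after twelve to sixteen greenhouse days. Test chemicals, formulated in surfactant-containing non-phytotoxic solvent, applied to soil after planting and, separately, onto 1- to 4-leaf (2–18 cm) plants.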

[2] = system: cocklebur (Xanthium strumarium); experiment: Test B pre-/postemergence
How it was run: as §1

corn (Zea mays) = experiment: Test B pre-/postemergence
How it was run: as §1

[3] = system: crabgrass (Digitaria sanguinalis); experiment: Test B pre-/postemergence
How it was run: as §1

[4] = system: pigweed (Amaranthus retroflexus); experiment: Test B pre-/postemergence
How it was run: as §1

[5] = system: purple nutsedge (Cyperus rotundus); experiment: Test B pre-/postemergence
How it was run: as §1

rape (Brassica napus) = experiment: Test B pre-/postemergence
How it was run: as §1

soybean (Glycine max) = experiment: Test B pre-/postemergence
How it was run: as §1

[6] = system: sugar beet (Beta vulgaris); experiment: Test B pre-/postemergence
How it was run: as §1

[7] = system: velvetleaf (Abutilon theophrasti); experiment: Test B pre-/postemergence
How it was run: as §1

[8] = system: wheat (Triticum aestivum); experiment: Test B pre-/postemergence
How it was run: as §1

[9] = system: bamyardgrass (Echinochloa crus-galli); experiment: Test B flood test; conditions: for Plant response rating, Barnyardgrass: Postemergence (flood test species)
How it was run: (§2)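 Flood test on plants grown to the 2-leaf stage; treated plants kept in greenhouse twelve to sixteen days, then visually rated against controls on a 0 (no effect) to 10 (complete control) scale.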

[10] = system: duck salad (Heteranthera limosa); experiment: Test B flood test; conditions: for Plant response rating, Ducksalad: Postemergence (flood test species)
How it was run: as §2

rice (Oryza sativa) = experiment: Test B flood test; conditions: for Plant response rating, Rice: Postemergence (flood test species)
How it was run: as §2

[11] = system: smallflower flatsedge (Cyperus difformis); experiment: Test B flood test; conditions: for Plant response rating, S. Flatsedge: Postemergence (flood test species)
How it was run: as §2

[12] = Preemergence, Rate 62 g/ha, scale of 0 to 10
[13] = Rate 62 g/ha, Postemergence (flood test)
[14] = Rate 125 g/ha, Postemergence section (flood test species)

Cc1cnc(-n2ccc(C(F)(F)F)n2)nc1C(=O)c1cccc(OC(F)(F)F)c1 [Compound 66]
Plant response rating, Blackgrass [1, 12]: 3 | Blackgrass plant response rating ([1]; Rate 62 g/ha, Postemergence): 2 | Blackgrass plant response rating ([1]; Rate 125 g/ha, Postemergence): 3 | Plant response rating, Blackgrass ([1]; Rate 125 g/ha, Preemergence): 3 | Plant response rating, Blackgrass ([1]; Rate 250 g/ha, Postemergence): 5 | Plant response rating, Blackgrass ([1]; Rate 250 g/ha, Preemergence): 8 | Plant response rating, Blackgrass ([1]; Rate 500 g/ha, Postemergence): 6 | Plant response rating, Blackgrass ([1]; Rate 500 g/ha, Preemergence): 10 | Plant response rating, Cocklebur [2, 12]: 0 | Cocklebur plant response rating ([2]; Rate 62 g/ha, Postemergence): 3 | Cocklebur plant response rating ([2]; Rate 125 g/ha, Postemergence): 4 | Plant response rating, Cocklebur ([2]; Rate 125 g/ha, Preemergence): 0 | Plant response rating, Cocklebur ([2]; Rate 250 g/ha, Postemergence): 4 | Plant response rating, Cocklebur ([2]; Rate 250 g/ha, Preemergence): 0 | Plant response rating, Cocklebur ([2]; Rate 500 g/ha, Postemergence): 5 | Plant response rating, Cocklebur ([2]; Rate 500 g/ha, Preemergence): 3 | Plant response rating, Corn (corn (Zea mays); [12]): 0 | Corn plant response rating (corn (Zea mays); Rate 62 g/ha, Postemergence): 1 | Corn plant response rating (corn (Zea mays); Rate 125 g/ha, Postemergence): 2 | Plant response rating, Corn (corn (Zea mays); Rate 125 g/ha, Preemergence): 1 | Plant response rating, Corn (corn (Zea mays); Rate 250 g/ha, Postemergence): 2 | Plant response rating, Corn (corn (Zea mays); Rate 250 g/ha, Preemergence): 1 | Plant response rating, Corn (corn (Zea mays); Rate 500 g/ha, Postemergence): 3 | Plant response rating, Corn (corn (Zea mays); Rate 500 g/ha, Preemergence): 3 | Plant response rating, Crabgrass [3, 12]: 6 | Crabgrass plant response rating ([3]; Rate 62 g/ha, Postemergence): 2 | Crabgrass plant response rating ([3]; Rate 125 g/ha, Postemergence): 7 | Plant response rating, Crabgrass ([3]; Rate 125 g/ha, Preemergence): 9 | Plant response rating, Crabgrass ([3]; Rate 250 g/ha, Postemergence): 8 | Plant response rating, Crabgrass ([3]; Rate 250 g/ha, Preemergence): 9 | Plant response rating, Crabgrass ([3]; Rate 500 g/ha, Postemergence): 10 | Plant response rating, Crabgrass ([3]; Rate 500 g/ha, Preemergence): 9 | Plant response rating, Redroot pigweed [4, 12]: 7 | Redroot pigweed plant response rating ([4]; Rate 62 g/ha, Postemergence): 8 | Redroot pigweed plant response rating ([4]; Rate 125 g/ha, Postemergence): 9 | Plant response rating, Redroot pigweed ([4]; Rate 125 g/ha, Preemergence): 9 | Plant response rating, Redroot pigweed ([4]; Rate 250 g/ha, Postemergence): 10 | Plant response rating, Redroot pigweed ([4]; Rate 250 g/ha, Preemergence): 9 | Plant response rating, Redroot pigweed ([4]; Rate 500 g/ha, Postemergence): 10 | Plant response rating, Redroot pigweed ([4]; Rate 500 g/ha, Preemergence): 10 | Plant response rating, Nutsedge [5, 12]: 0 | Nutsedge plant response rating ([5]; Rate 62 g/ha, Postemergence): 0 | Nutsedge plant response rating ([5]; Rate 125 g/ha, Postemergence): 1 | Plant response rating, Nutsedge ([5]; Rate 250 g/ha, Postemergence): 1 | Plant response rating, Nutsedge ([5]; Rate 500 g/ha, Postemergence): 1 | Plant response rating, Nutsedge ([5]; Rate 500 g/ha, Preemergence): 0 | Plant response rating, Rape (rape (Brassica napus); [12]): 0 | Rape plant response rating (rape (Brassica napus); Rate 62 g/ha, Postemergence): 3 | Rape plant response rating (rape (Brassica napus); Rate 125 g/ha, Postemergence): 3 | Plant response rating, Rape (rape (Brassica napus); Rate 125 g/ha, Preemergence): 0 | Plant response rating, Rape (rape (Brassica napus); Rate 250 g/ha, Postemergence): 7 | Plant response rating, Rape (rape (Brassica napus); Rate 250 g/ha, Preemergence): 4 | Plant response rating, Rape (rape (Brassica napus); Rate 500 g/ha, Postemergence): 7 | Plant response rating, Rape (rape (Brassica napus); Rate 500 g/ha, Preemergence): 8 | Plant response rating, Soybean (soybean (Glycine max); [12]): 0 | Soybean plant response rating (soybean (Glycine max); Rate 62 g/ha, Postemergence): 5 | Soybean plant response rating (soybean (Glycine max); Rate 125 g/ha, Postemergence): 5 | Plant response rating, Soybean (soybean (Glycine max); Rate 125 g/ha, Preemergence): 0 | Plant response rating, Soybean (soybean (Glycine max); Rate 250 g/ha, Postemergence): 6 | Plant response rating, Soybean (soybean (Glycine max); Rate 250 g/ha, Preemergence): 0 | Plant response rating, Soybean (soybean (Glycine max); Rate 500 g/ha, Postemergence): 7 | Plant response rating, Soybean (soybean (Glycine max); Rate 500 g/ha, Preemergence): 1 | Plant response rating, Sugarbeets [6, 12]: 9 | Sugarbeets plant response rating ([6]; Rate 62 g/ha, Postemergence): 10 | Sugarbeets plant response rating ([6]; Rate 125 g/ha, Postemergence): 10 | Plant response rating, Sugarbeets ([6]; Rate 125 g/ha, Preemergence): 10 | Plant response rating, Sugarbeets ([6]; Rate 250 g/ha, Postemergence): 10 | Plant response rating, Sugarbeets ([6]; Rate 250 g/ha, Preemergence): 10 | Plant response rating, Sugarbeets ([6]; Rate 500 g/ha, Postemergence): 10 | Plant response rating, Sugarbeets ([6]; Rate 500 g/ha, Preemergence): 10 | Plant response rating, Velvetleaf [7, 12]: 1 | Velvetleaf plant response rating ([7]; Rate 62 g/ha, Postemergence): 4 | Velvetleaf plant response rating ([7]; Rate 125 g/ha, Postemergence): 5 | Plant response rating, Velvetleaf ([7]; Rate 125 g/ha, Preemergence): 4 | Plant response rating, Velvetleaf ([7]; Rate 250 g/ha, Postemergence): 6 | Plant response rating, Velvetleaf ([7]; Rate 250 g/ha, Preemergence): 8 | Plant response rating, Velvetleaf ([7]; Rate 500 g/ha, Postemergence): 8 | Plant response rating, Velvetleaf ([7]; Rate 500 g/ha, Preemergence): 8 | Plant response rating, Wheat [8, 12]: 0 | Wheat plant response rating ([8]; Rate 62 g/ha, Postemergence): 2 | Wheat plant response rating ([8]; Rate 125 g/ha, Postemergence): 2 | Plant response rating, Wheat ([8]; Rate 125 g/ha, Preemergence): 1 | Plant response rating, Wheat ([8]; Rate 250 g/ha, Postemergence): 2 | Plant response rating, Wheat ([8]; Rate 250 g/ha, Preemergence): 2 | Plant response rating, Wheat ([8]; Rate 500 g/ha, Postemergence): 3 | Plant response rating, Wheat ([8]; Rate 500 g/ha, Preemergence): 3 | Barnyardgrass plant response rating [9, 13]: 3 | Barnyardgrass plant response rating [9, 14]: 3 | Plant response rating, Barnyardgrass ([9]; Rate 250 g/ha): 4 | Plant response rating, Barnyardgrass ([9]; Rate 500 g/ha): 4 | Ducksalad plant response rating [10, 13]: 2 | Ducksalad plant response rating [10, 14]: 3 | Plant response rating, Ducksalad ([10]; Rate 250 g/ha): 5 | Plant response rating, Ducksalad ([10]; Rate 500 g/ha): 7 | Rice plant response rating (rice (Oryza sativa); [13]): 0 | Rice plant response rating (rice (Oryza sativa); [14]): 1 | Plant response rating, Rice (rice (Oryza sativa); Rate 250 g/ha): 1 | Plant response rating, Rice (rice (Oryza sativa); Rate 500 g/ha): 2 | S. Flatsedge plant response rating [11, 13]: 6 | S. Flatsedge plant response rating [11, 14]: 8 | Plant response rating, S. Flatsedge ([11]; Rate 250 g/ha): 8 | Plant response rating, S. Flatsedge ([11]; Rate 500 g/ha): 9
